In paper PMC7948503, “Optimization of a peptide ligand for the adhesion GPCR ADGRG2 provides a potent tool to explore receptor biology” (The Journal of Biological Chemistry, 2020):
Non-standard residues stand in square brackets, D forms with d. Residues, ends and D or L forms follow the SMILES beside them. Primed or numbered codes have the meaning given here. No end group written: not given here. Phe(4-Me) = Cc1ccc(C[C@H](N)C(=O)O)cc1; FITC′ = not defined here

Key:
ADGRG2-ΔGPS-β V768A = biological target: T1, ADGRG2-ΔGPS-β V768A (Mus musculus, UniProt Q8CJ12, V782A); experiment: GloSensor cAMP assay; type: cell-based; settings: mutant V768A; HEK293, cAMP Glosensor
T1 construct: expressed in transfected cells; host or cells: HEK293
T1 sequence (Q8CJ12 614-1009 V782A): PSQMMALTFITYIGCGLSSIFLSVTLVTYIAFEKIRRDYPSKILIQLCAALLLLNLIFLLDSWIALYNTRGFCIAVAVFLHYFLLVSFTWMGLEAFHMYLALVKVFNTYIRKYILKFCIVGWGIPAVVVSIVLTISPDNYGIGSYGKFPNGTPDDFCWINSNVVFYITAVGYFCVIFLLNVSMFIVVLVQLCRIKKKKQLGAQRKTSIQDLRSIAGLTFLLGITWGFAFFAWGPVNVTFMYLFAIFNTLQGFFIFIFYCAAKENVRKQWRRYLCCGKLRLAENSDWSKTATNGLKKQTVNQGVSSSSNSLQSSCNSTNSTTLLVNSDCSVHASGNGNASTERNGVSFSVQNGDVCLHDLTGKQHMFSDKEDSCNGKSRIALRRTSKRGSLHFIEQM
Excerpt: (§1) Wildtype ADGRG2 full-length (ADGRG2-FL) was cloned from mouse total cDNA libraries using the following primers: forward, […]; reverse, […], and then ADGRG2-FL, ADGRG2 C-terminal truncation mutant (ADGRG2-β), and ADGRG2-ΔGPS-β (the entire ECD of ADGRG2 was deleted) were subcloned into the pcDNA3.1 expression vector. The ADGRG2-ΔGPS-β mutants (T610A, Y611A, C614A, S661A, W662A, I663A, L665A, Y666A，N667A, F671A, L679A, L683A, I730A, V731A, F741A, F747A, W757A, I758A, N759A, S760A, V762A, F764A, Y765A, V768A, V769A, F772A, V774A, W824A, F826A, F828A, F829A, V834A, V836A, F838A, M839A, I844A, F845A) were generated using a QuikChange Mutagenesis Kit (Stratagene). All mutations were verified by DNA sequencing.
(§2) The Glosensor cAMP assay was performed as described ([6], [39], [40]). HEK293 cells were transfected with the GloSensor plasmid and the desired expression plasmids in 24-well dishes. Twenty-four hours after transfection, the cells were plated on 96-well plates at a cell density of 20,000 cells/well. The cells were maintained in Dulbecco’s modified Eagle’s medium for another 24 h, washed with PBS, and then incubated with 100 μl of solution containing 10% fetal bovine serum, 2% (v/v) GloSensor cAMP reagent, and 88% CO2-independent medium in each well for 2 h. The cAMP signal was examined using a luminescence counter (Mithras LB 940).

ADGRG2-ΔGPS-β F829A = biological target: T2, ADGRG2-ΔGPS-β F829A (Mus musculus, UniProt Q8CJ12, F843A); experiment: GloSensor cAMP assay; type: cell-based; settings: mutant F829A; HEK293, cAMP Glosensor
T2 construct: expressed in transfected cells; host or cells: HEK293
T2 sequence (Q8CJ12 614-1009 F843A): as the sequence (Q8CJ12 614-1009 V782A) above, with A169V, F230A counted along it
Excerpt: as §1, §2

ADGRG2-ΔGPS-β M839A = biological target: T3, ADGRG2-ΔGPS-β M839A (Mus musculus, UniProt Q8CJ12, M853A); experiment: GloSensor cAMP assay; type: cell-based; settings: mutant M839A; HEK293, cAMP Glosensor
T3 construct: expressed in transfected cells; host or cells: HEK293
T3 sequence (Q8CJ12 614-1009 M853A): as the sequence (Q8CJ12 614-1009 V782A) above, with A169V, M240A counted along it
Excerpt: as §1, §2

ADGRG2-ΔGPS-β F845A = biological target: T4, ADGRG2-ΔGPS-β F845A (Mus musculus, UniProt Q8CJ12, F859A); experiment: GloSensor cAMP assay; type: cell-based; settings: mutant F845A; HEK293, cAMP Glosensor
T4 construct: expressed in transfected cells; host or cells: HEK293
T4 sequence (Q8CJ12 614-1009 F859A limits assumed): as the sequence (Q8CJ12 614-1009 V782A) above, with A169V, F246A counted along it
Excerpt: as §1, §2

ADGRG2-ΔGPS-β L679A = biological target: T5, ADGRG2-ΔGPS-β L679A (Mus musculus, UniProt Q8CJ12, L693A); experiment: GloSensor cAMP assay; type: cell-based; settings: mutant L679A; HEK293, cAMP Glosensor
T5 construct: expressed in transfected cells; host or cells: HEK293
T5 sequence (Q8CJ12 614-1009 L693A): as the sequence (Q8CJ12 614-1009 V782A) above, with L80A, A169V counted along it
Excerpt: as §1, §2

ADGRG2-ΔGPS-β L683A = biological target: T6, ADGRG2-ΔGPS-β L683A (Mus musculus, UniProt Q8CJ12, L697A); experiment: GloSensor cAMP assay; type: cell-based; settings: mutant L683A; HEK293, cAMP Glosensor
T6 construct: expressed in transfected cells; host or cells: HEK293
T6 sequence (Q8CJ12 614-1009 L697A): as the sequence (Q8CJ12 614-1009 V782A) above, with L84A, A169V counted along it
Excerpt: as §1, §2

ADGRG2-ΔGPS-β V769A = biological target: T7, ADGRG2-ΔGPS-β V769A (Mus musculus, UniProt Q8CJ12, V783A); experiment: GloSensor cAMP assay; type: cell-based; settings: mutant V769A; HEK293, cAMP Glosensor
T7 construct: expressed in transfected cells; host or cells: HEK293
T7 sequence (Q8CJ12 614-1009 V783A): as the sequence (Q8CJ12 614-1009 V782A) above, with A169V, V170A counted along it
Excerpt: as §1, §2

ADGRG2-ΔGPS-β V762A = biological target: T8, ADGRG2-ΔGPS-β V762A (Mus musculus, UniProt Q8CJ12, V776A); experiment: GloSensor cAMP assay; type: cell-based; settings: mutant V762A; HEK293, cAMP Glosensor
T8 construct: expressed in transfected cells; host or cells: HEK293
T8 sequence (Q8CJ12 614-1009 V776A): as the sequence (Q8CJ12 614-1009 V782A) above, with V163A, A169V counted along it
Excerpt: as §1, §2

ADGRG2-ΔGPS-β Y666A = biological target: T9, ADGRG2-ΔGPS-β Y666A (Mus musculus, UniProt Q8CJ12, Y680A); experiment: GloSensor cAMP assay; type: cell-based; settings: mutant Y666A; HEK293, cAMP Glosensor
T9 construct: expressed in transfected cells; host or cells: HEK293
T9 sequence (Q8CJ12 614-1009 Y680A): as the sequence (Q8CJ12 614-1009 V782A) above, with Y67A, A169V counted along it
Excerpt: as §1, §2

ADGRG2-ΔGPS-β T610A = biological target: T10, ADGRG2-ΔGPS-β T610A (Mus musculus, UniProt Q8CJ12, T624A); experiment: GloSensor cAMP assay; type: cell-based; settings: mutant T610A; HEK293, cAMP Glosensor
T10 construct: expressed in transfected cells; host or cells: HEK293
T10 sequence (Q8CJ12 614-1009 T624A): as the sequence (Q8CJ12 614-1009 V782A) above, with T11A, A169V counted along it
Excerpt: as §1, §2

Rluc-ADGRG2-ΔGPS-β F845A = biological target: T11, Rluc-ADGRG2-ΔGPS-β F845A (mouse, UniProt Q8CJ12-3 38-995, F845A); experiment: FRET or BRET; HEK293 cells transfected with Rluc-ADGRG2-ΔGPS-β WT or mutants, stimulated by increasing concentrations of FITC-conjugated VPM-p15; saturation curves fitted with GraphPad; each experiment repeated 6 times; settings: one partner purified
T11 construct: ADGRG2 (GPR64), mouse, ADGRG2-ΔGPS-β: the entire ECD removed; source: HEK293, transfected, on cells; not shown: Rluc, N-terminal, kept
T11 sequence (Q8CJ12 other isoform, or with tags, fused parts or gaps F845A | F845A | F845A F845A): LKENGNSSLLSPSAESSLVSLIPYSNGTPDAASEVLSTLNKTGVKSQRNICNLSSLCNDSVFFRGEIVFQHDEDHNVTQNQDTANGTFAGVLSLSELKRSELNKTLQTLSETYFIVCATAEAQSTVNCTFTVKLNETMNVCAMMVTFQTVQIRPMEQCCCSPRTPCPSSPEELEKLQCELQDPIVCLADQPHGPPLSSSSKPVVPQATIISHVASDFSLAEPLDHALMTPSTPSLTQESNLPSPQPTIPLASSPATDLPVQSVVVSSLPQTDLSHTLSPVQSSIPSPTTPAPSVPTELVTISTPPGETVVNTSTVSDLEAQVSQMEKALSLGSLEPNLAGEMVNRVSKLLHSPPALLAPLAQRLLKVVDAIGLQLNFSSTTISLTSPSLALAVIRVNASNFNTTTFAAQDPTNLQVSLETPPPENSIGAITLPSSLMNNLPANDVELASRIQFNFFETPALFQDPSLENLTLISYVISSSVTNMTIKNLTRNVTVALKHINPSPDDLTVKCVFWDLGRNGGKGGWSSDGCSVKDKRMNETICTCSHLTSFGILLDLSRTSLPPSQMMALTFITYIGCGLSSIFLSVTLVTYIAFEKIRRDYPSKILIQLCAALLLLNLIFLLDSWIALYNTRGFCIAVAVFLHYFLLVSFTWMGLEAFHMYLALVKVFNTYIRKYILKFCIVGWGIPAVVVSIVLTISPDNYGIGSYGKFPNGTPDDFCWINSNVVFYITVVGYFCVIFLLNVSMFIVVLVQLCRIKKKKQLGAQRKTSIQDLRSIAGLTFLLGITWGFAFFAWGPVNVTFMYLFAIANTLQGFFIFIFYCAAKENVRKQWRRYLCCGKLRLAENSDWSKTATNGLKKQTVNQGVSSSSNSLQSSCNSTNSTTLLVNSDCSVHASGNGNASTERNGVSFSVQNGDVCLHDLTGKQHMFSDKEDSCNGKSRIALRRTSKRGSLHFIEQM

Rluc-ADGRG2-ΔGPS-β F747A = biological target: T12, Rluc-ADGRG2-ΔGPS-β F747A (mouse, UniProt Q8CJ12-3 38-995, F747A); experiment: as above; settings: one partner purified
T12 construct: ADGRG2 (GPR64), mouse, ADGRG2-ΔGPS-β: the entire ECD removed; source: HEK293, transfected, on cells; not shown: Rluc, N-terminal, kept
T12 sequence (Q8CJ12 other isoform, or with tags, fused parts or gaps F747A | F747A | F747A F747A): as the sequence (Q8CJ12 other isoform, or with tags, fused parts or gaps F845A | F845A | F845A F845A) above, with F710A, A808F counted along it

Rluc-ADGRG2-ΔGPS-β F772A = biological target: T13, Rluc-ADGRG2-ΔGPS-β F772A (mouse, UniProt Q8CJ12-3 38-995, F772A); experiment: as above; settings: one partner purified
T13 construct: ADGRG2 (GPR64), mouse, ADGRG2-ΔGPS-β: the entire ECD removed; source: HEK293, transfected, on cells; not shown: Rluc, N-terminal, kept
T13 sequence (Q8CJ12 other isoform, or with tags, fused parts or gaps F772A | F772A | F772A F772A): as the sequence (Q8CJ12 other isoform, or with tags, fused parts or gaps F845A | F845A | F845A F845A) above, with F735A, A808F counted along it

Rluc-ADGRG2-ΔGPS-β V834A = biological target: T14, Rluc-ADGRG2-ΔGPS-β V834A (mouse, UniProt Q8CJ12-3 38-995, V834A); experiment: as above; settings: one partner purified
T14 construct: ADGRG2 (GPR64), mouse, ADGRG2-ΔGPS-β: the entire ECD removed; source: HEK293, transfected, on cells; not shown: Rluc, N-terminal, kept
T14 sequence (Q8CJ12 other isoform, or with tags, fused parts or gaps V834A | V834A | V834A V834A): as the sequence (Q8CJ12 other isoform, or with tags, fused parts or gaps F845A | F845A | F845A F845A) above, with V797A, A808F counted along it

Rluc-ADGRG2-ΔGPS-β V731A = biological target: T15, Rluc-ADGRG2-ΔGPS-β V731A (mouse, UniProt Q8CJ12-3 38-995, V731A); experiment: as above; settings: one partner purified
T15 construct: ADGRG2 (GPR64), mouse, ADGRG2-ΔGPS-β: the entire ECD removed; source: HEK293, transfected, on cells; not shown: Rluc, N-terminal, kept
T15 sequence (Q8CJ12 other isoform, or with tags, fused parts or gaps V731A | V731A | V731A V731A): as the sequence (Q8CJ12 other isoform, or with tags, fused parts or gaps F845A | F845A | F845A F845A) above, with V694A, A808F counted along it

Rluc-ADGRG2-ΔGPS-β Y666A = biological target: T16, Rluc-ADGRG2-ΔGPS-β Y666A (mouse, UniProt Q8CJ12-3 38-995, Y666A); experiment: as above; settings: one partner purified
T16 construct: ADGRG2 (GPR64), mouse, ADGRG2-ΔGPS-β: the entire ECD removed; source: HEK293, transfected, on cells; not shown: Rluc, N-terminal, kept
T16 sequence (Q8CJ12 other isoform, or with tags, fused parts or gaps Y666A | Y666A | Y666A Y666A): as the sequence (Q8CJ12 other isoform, or with tags, fused parts or gaps F845A | F845A | F845A F845A) above, with Y629A, A808F counted along it

**Q.** Which EC50 (ADGRG2-ΔGPS-β V768A) does the source give for CC[C@H](C)[C@H](NC(=O)CNC(=O)[C@H](Cc1ccc(C)cc1)NC(=O)[C@H](CO)NC(=O)[C@@H](N)C(C)C)C(=O)N[C@@H](CC(C)C)C(=O)N[C@@H](CC(C)C)C(=O)N[C@@H](CC(=O)O)C(=O)N[C@@H](CC(C)C)C(=O)N[C@@H](CO)C(=O)N[C@@H](CCCNC(=N)N)C(=O)N[C@H](C(=O)N[C@@H](CO)C(=O)N[C@@H](CC(C)C)C(=O)N1CCC[C@H]1C(=O)O)[C@@H](C)O [VPM-p15] (H-VS[Phe(4-Me)]GILLDLSRTSLP-OH) here?
**A.** 7390 nM

**Q.** What about the EC50 (ADGRG2-ΔGPS-β F829A) of the same molecule?
**A.** 1160 nM

**Q.** What about the EC50 (ADGRG2-ΔGPS-β M839A) of the same molecule?
**A.** 1720 nM

**Q.** And the EC50 (ADGRG2-ΔGPS-β F845A)?
**A.** 3210 nM

**Q.** What about the EC50 (ADGRG2-ΔGPS-β L679A) of the same molecule?
**A.** 1160 nM

**Q.** And the EC50 (ADGRG2-ΔGPS-β L683A)?
**A.** 1310 nM

**Q.** And the EC50 (ADGRG2-ΔGPS-β V769A)?
**A.** 1690 nM

**Q.** What about the EC50 (ADGRG2-ΔGPS-β V762A) of the same molecule?
**A.** 2350 nM

**Q.** What about the EC50 (ADGRG2-ΔGPS-β Y666A) of the same molecule?
**A.** 1130 nM

**Q.** What about the EC50 (ADGRG2-ΔGPS-β T610A) of the same molecule?
**A.** 1030 nM

**Q.** Which EC50 (Rluc-ADGRG2-ΔGPS-β F845A) does the source give for VS[Phe(4-Me)]GILLDLSRTSLP-{FITC′} [FITC-conjugated VPM-p15 (ADGRG2 Stachel peptide p15 T1V/F3Phe(4-Me))] here?
**A.** 1360 nM

**Q.** What about the EC50 (Rluc-ADGRG2-ΔGPS-β F747A) of the same molecule?
**A.** 759 nM

**Q.** What about the EC50 (Rluc-ADGRG2-ΔGPS-β F772A) of the same molecule?
**A.** 842 nM

**Q.** What about the EC50 (Rluc-ADGRG2-ΔGPS-β V834A) of the same molecule?
**A.** 1120 nM

**Q.** And the EC50 (Rluc-ADGRG2-ΔGPS-β V731A)?
**A.** 838 nM

**Q.** And the EC50 (Rluc-ADGRG2-ΔGPS-β Y666A)?
**A.** 838 nM
